Assay results as given in patent US20240287064A1, “TRICYCLIC COMPOUND USED AS GPR84 ANTAGONIST” (Wuhan Humanwell Innovative Drug Research and Development …, priority 2021, published 2024).

Key:
[1] = molecular target: T1, human GPR84 receptor (Homo sapiens, UniProt Q9NQS5); assay: GPR84 antagonistic effect determination (cAMP assay, forskolin and 6-OAU stimulation); type: cell-based; settings: CHO stably transfected cell line highly expressing human GPR84; 2.5 μM Forskolin & 200 nM 6-OAU; cAMP readout; read-out: Antagonistic effect against GPR84, IC50
T1 construct: expressed in transfected cells; host or cells: CHO
T1 sequence (Q9NQS5 whole entry): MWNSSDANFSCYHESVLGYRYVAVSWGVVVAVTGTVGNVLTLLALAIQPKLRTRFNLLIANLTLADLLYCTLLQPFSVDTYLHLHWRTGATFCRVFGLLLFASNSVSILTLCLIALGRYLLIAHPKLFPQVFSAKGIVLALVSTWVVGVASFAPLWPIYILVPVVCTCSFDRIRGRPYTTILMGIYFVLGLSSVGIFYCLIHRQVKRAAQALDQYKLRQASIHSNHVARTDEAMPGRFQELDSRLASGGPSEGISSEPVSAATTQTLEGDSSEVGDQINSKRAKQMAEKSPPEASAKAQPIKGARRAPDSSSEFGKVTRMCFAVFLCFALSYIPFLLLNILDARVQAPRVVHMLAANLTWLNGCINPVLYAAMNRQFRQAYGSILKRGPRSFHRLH
Description: The antagonistic effect of the compound against GPR84 was determined in a CHO stably transfected cell line highly expressing the human GPR84 receptor. The stably transfected cells were cultured until 80% confluence; the cells were collected by trypsinization, counted, and then inoculated into a 384-well plate at 5 L/well. 10× compound working solution was prepared with 1× Stimulation Buffer. […] After the reaction was completed, the content of CAMP in the cells was quantified according to the method in the instructions of the cAMP assay kit (Perkin Elmer, Cat #TRF0263). The antagonistic effect (IC50 value) of the test compounds was calculated.

[2] = Pharmacokinetic experiment in mice; type: in vivo; settings: mouse; male ICR mice, oral gavage 3 mg/kg, plasma
Description: For the pharmacokinetic experiment in mice, male ICR mice, 20 to 25 g, were used and fasted overnight. Three mice were taken and orally administered by gavage (3 mg/kg): blood was collected before the administration, and at 15 min, 30 min, 1 hour, 2 hours, 4 hours, 8 hours, and 24 hours after the administration. The blood samples were centrifuged at 6800 g for 6 min at 2 to 8° C., and plasma was collected and stored at −80° C. 20 μL of plasma at each time point was taken, and added with 200 μL of methanol containing 100 ng/mL internal standard. The mixture was vortexed, mixed evenly, and then centrifuged at 18000 g for 7 min at 2 to 8° ° C. 200 μL of the mixture was transferred to a 96-well injection plate for LC-MS/MS quantitative analysis. The main pharmacokinetic parameters were analyzed using WinNonlin 7.0 software with non-compartmental model.

Row | IC50 [1] [nM] | AUC(0-t) [2] [ng·h/mL] | Cmax [2] [ng/mL] | Tmax [2] [min] | half-life [2] [min] | Structure (SMILES)
1 | 27.2 | 54400 | 14800 | 30 | 61.8 | O=c1nc(OCC23CC(CO2)C3)cc2n1CCc1cc(C#CC3CC3)ccc1-2 [Compound I-1, 2-((2-oxabicyclo[2.1.1]hexan-1-yl)methoxy)-9-(cyclopropylethynyl)-6,7-dihydro-4H-pyrimido[6,1-α]isoquinolin-4-one]
2 |  | 7280 | 4120 | 30 | 229 | O=c1nc(OC[C@@H]2COCCO2)cc2n1CCc1cc(C#CC3CC3)ccc1-2 [Control compound, reference compound]
